Data: patent US11753453B2, “Peptide kinase inhibitors and methods of use thereof” (B.G. NEGEV TECHNOLOGIES AND APPLICATIONS LTD., priority 2017, dated 2023)

How the values were obtained:
MCF7 = test: PrestoBlue cell viability/proliferation assay, MCF7; assay type: cell-based; settings: compared with uPEP9-26, uPEP18-26 and ηPS
Experimental: (§1) FIGS. 4A-4D show the ability of the peptide encoded by uORF2 (uPEP21-26) to reduce viability of breast cancer and glioblastoma cells. FIG. 4A: MCF-7 cells were seeded onto 48-well plates. 24 hours later, the cells were incubated for 24 hours with the indicated peptides). Following incubation, the medium with tested peptide was gently aspirated from each well and 25 μL of PrestoBlue reagent was added to each well of the 48-well plate and incubated at 37° C. in 5% CO2 for 15 min, as recommended. The absorbance was detected by ‘Infinite M200 PRO’ reader. FIGS. 4B-4D are the results of experiments identical to that described by FIG. 4A, but performed on cells lines U251 MG (glioblastoma cell line), MDA-MB-231 and MCF10A, respectively.
(§2) MCF-7 and MDA-MB-231 cells were seeded at 2×10^4 cells/well in 48-well plates. After 24 h serum free-media containing the peptides was added to the wells for 4 h. Then, medium with serum was added and the plate was incubated for 24 h at incubator (5% CO2 humidified atmosphere at 37° C.). Following incubation, the medium with tested peptide was gently aspirated from each well and 25 μL of PrestoBlue™ reagent (Thermo #A13261) was added to each well of the 48-well plate and incubated at 37° C. in 5% CO2 for 15 min, as recommended. The absorbance was recorded at 570 nm and detected by ‘Infinite M200 PRO’ reader. […]

[1] = test system: U251 MG (glioblastoma cell line); test: PrestoBlue cell viability/proliferation assay, U251 MG; assay type: cell-based; settings: compared with uPEP9-26, uPEP18-26 and ηPS
Experimental: as §1, §2

PKCη = target: T1, PKCη (Homo sapiens, UniProt P24723); test: In vitro kinase assay of PKCη with Myelin Basic Protein as substrate; assay type: biochemical; settings: p-MBP, γ-32P radioactive kinase assay; compared to control peptide uPEP9-26 and ηPS; peptides 2 or 10 μM
T1 construct: HA; expressed in transfected cells
T1 sequence (P24723 whole entry): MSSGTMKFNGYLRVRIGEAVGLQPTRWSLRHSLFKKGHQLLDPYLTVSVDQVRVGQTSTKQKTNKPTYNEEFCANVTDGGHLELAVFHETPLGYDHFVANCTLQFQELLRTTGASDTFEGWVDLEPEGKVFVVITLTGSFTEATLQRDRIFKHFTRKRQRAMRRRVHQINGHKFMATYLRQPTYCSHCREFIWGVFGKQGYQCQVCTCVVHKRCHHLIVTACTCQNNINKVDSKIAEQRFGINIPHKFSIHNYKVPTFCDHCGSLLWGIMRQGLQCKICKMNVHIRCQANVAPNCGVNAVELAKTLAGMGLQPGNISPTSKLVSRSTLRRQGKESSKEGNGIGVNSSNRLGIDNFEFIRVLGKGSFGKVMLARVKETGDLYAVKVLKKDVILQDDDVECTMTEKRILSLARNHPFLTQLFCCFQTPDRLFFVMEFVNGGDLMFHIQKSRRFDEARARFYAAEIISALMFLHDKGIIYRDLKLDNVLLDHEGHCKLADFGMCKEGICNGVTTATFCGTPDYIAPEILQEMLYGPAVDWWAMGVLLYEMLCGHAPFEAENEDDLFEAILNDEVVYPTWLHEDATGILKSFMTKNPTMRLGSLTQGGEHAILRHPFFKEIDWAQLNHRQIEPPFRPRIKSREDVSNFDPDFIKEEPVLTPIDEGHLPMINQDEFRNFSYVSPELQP
Experimental: (§3) FIG. 2A is a schematic view of the peptides derived from PKCη and used in the examples described herein. uPEP1-26 refers to the complete peptide encoded by uORF2; uPEP9-26 and uPEP18-26 refer to control peptides, which lack the PS motif; ηPS refer to a peptide containing the internal PS domain of PKCη. […] The kinase activity of PKCη was measured using Myelin Basic Protein (p-MBP) as a substrate and γ-^32P radioactive kinase assays. All values were normalized to the control sample without a peptide (Cont.). The data shown are the means of three separate experiments, and is also presented as the gel in FIG. 2C. FIG. 2D: Kinase assays were conducted as described in FIG. 2B, using uPEP1-26 at 2 μM concentration are depicted. All values were normalized to the control sample (without peptide). The data shown are the means of three separate experiments.
(§4) Immunoprecipitations were performed by using pre-absorbed mAbs on protein A/G-agarose beads for 1 h at room temperature. Excess Abs was removed by 3 washes in cold phosphate buffered saline (PBS) and Ab-coated beads were incubated with cell lysates overnight at 4° C. Immune complexes were precipitated by centrifugation followed by extensive washing with RIPA buffer without SDS (10 mM Tris-HCl pH 8.0, 100 mM NaCl, 5 mM EGTA, 1% NP-40, 45 mM β-mercaptoethanol, and 50 mM NaF). […] Kinase activity was evaluated with exposing reagents. […]

MDA-MB-231 [2] = test: PrestoBlue cell viability/proliferation assay, MDA-MB-231; assay type: cell-based; settings: compared with uPEP9-26, uPEP18-26 and ηPS
Experimental: as §1, §2

MCF7 (breast cancer) = test: Scratch (wound healing) assay, MCF7; assay type: cell-based
Experimental: (§5) FIG. 3A is a photograph taken from the scratch assay performed on MDA-MB-231 cells. Cells were seeded in 24-well plate and incubated for 4 hours with the indicated peptides in a free-serum media. After 4 hours, a scratch was made with a 200 μl pipette tip. Photographs of a selected area of each scratch were taken at indicated time points. Areas were measured by ImageJ software. FIGS. 3B-3D are graphs representing the analysis of the scratch assay performed as described in […] on cell lines MDA-MB-231, MCF-7 and MCF10A, respectively. All values were normalized to time 0 of each well and presented in percentage.
(§6) MCF-7 and MDA-MB-231 cells were seeded in 24-well plates and grown to full confluency. Subsequently, media with low serum (2% to MCF-7 and 0.1% to MDA-MB-231) containing the peptides were added to the wells for 4 h. Then, a scratch was placed in the middle of the well with a sterile 200 μl pipette tip (Eppendorf). After washing once with PBS, the respective treatments were returned. Wells were photographed at total magnification of 4× with an IX70 Olympus Optical light microscope (Tokyo, Japan). 3 Images for each well were taken every 24 h.
(§7) The in vitro effect of PKCeta uORF2 on cancer cell migration was tested […] by a standard scratch test assay, as described above. […]

[3] = test system: MDA-MB-231 (breast cancer); test: Scratch (wound healing) assay, MDA-MB-231; assay type: cell-based; settings: MDA-MB-231, scratch assay
Experimental: as §5, §6, §7

[4] = test system: PKCs from the novel PKC subfamily; test: In vitro kinase assay on PKC subfamilies; assay type: biochemical; settings: peptide at 2 μM; normalized to control without peptide
Experimental: as §3, §4

MDA-MB-231 [5] = test: XTT cell viability assay, MDA-MB-231; assay type: cell-based; settings: 5 μM and 10 μM, compared to the other peptides
Experimental: (§8) FIGS. 6A-6C show the efficacy of uORF2-encoded peptide mutated at position 10 (uPEP1-26[c/a]) in reducing cell viability on various cell lines. FIG. 6A: MCF-7 cells were seeded in 96 well plate and incubated for 24 hours with the indicated peptides. After 24 hours, the proliferation rate was monitored using XTT kit (Biological Industries, Israel) according to the manufacturer's instructions.
(§9) Cells were seeded on 96-wells plate at a cell density of 20,000 cells/well and were grown for 48 hours. Cells were treated as indicated for 48 hours. A XTT (#20-300-1000, Biological Industries) reaction solution was prepared (containing the XTT and activation solutions) and added (50 μl/well) into cell medium for 2-4 hours at 37° C. The plate was immediately read in an ELISA plate reader at 450-500 nm. Background reading was performed at 630 nm, and the results calculated as the differences between the values.
(§10) A uPEP21-26[10C/A] mutation of the PKCeta uORF2 peptide (SEQ ID NO: 1) was synthesized containing an alanine substitution at Cys-10, herein referred to as SEQ ID No 5. Cell lines MCF-7 (FIG. 6A), MDA-MB-231 (FIG. 6B) and HeLa (FIG. 6C) were treated with uPEP218-26, uPEP21-26, uPEP21-26[10C/A], uPEP21-17 and ηPS at doses of 5 μM and 10 μM in order to determine cell proliferation.

MCF-7 = test: XTT cell viability assay, MCF-7; assay type: cell-based; settings: 5 μM and 10 μM, compared to the other peptides
Experimental: as §8, §9, §10

HeLa = test: XTT cell viability assay, HeLa; assay type: cell-based; settings: 5 μM and 10 μM, compared to the other peptides
Experimental: as §8, §9, §10

4T1 cells = test: Breast 4T1 mouse model with PKCη knockdown cells; assay type: in vivo; settings: 4T1 cells expressing shRNA vs scrambled control, female BALB/c mice
Experimental: FIG. 7A: 4T1 cells expressing shPKCη (SEQ ID NO: 33) or scrambled control were injected into mammary fat pad of 8-week-old female BALB/c mice. Tumor diameters were measured every week with vernier calipers. FIG. 7B: The mice were sacrificed after 8 weeks, and number of metastasis formed in the lungs was counted using Bouin's solutions. Error bars represent the mean±s.e.m, statistical analysis indicates for statistical significance in two-tailed, unpaired sample t-test.
Mice were anesthetized with a solution of 10 ml/mg Ketamine and 1.17 ml/mg xylazine, in saline. Anesthesia was injected intraperitoneally (IP) after sterilizing the inoculation area of the mice with 70% ethanol solution. Using a 27-gauge needle, 4T1 control and shPKCη knockdown cells (transfected with SEQ ID NOs 33-35 or scrambled control (obtained from the ATCC) were injected a few millimeters from the nipple, underneath the skin (120,000 cells in 50 μl per mouse).
Each week, mice were tested for tumors and the primary tumors were examined by caliper. After 10 weeks, mice were euthanized and examined for metastases in lung, liver and spleen, and samples were prepared for immuno staining.
To test the in vivo effects of PKCeta on tumor formation, the establishment and growth of breast cancer cells with (4T1 control cells) and without PKCeta (PKCeta knockdown 4T1 cells) was compared.

With “uPEP1-26: full-length human PKCeta uORF2 peptide, 26 amino acids; MASRGALRRXLSPGLPRLLHLSRGLA wherein X is C (MASRGALRRCLSPGLPRLLHLSRGLA; listed as Homo sapiens)” the “inhibition of cell proliferation” value (MCF7) was “inhibited cell proliferation the most”, the “inhibition of cell proliferation” value [1] was “inhibited cell proliferation the most” and the “inhibition of kinase activity of PKCη” value (PKCη) was “strongest inhibitor”. The “inhibition of cell proliferation” value (MDA-MB-231 [2]) was “inhibited cell proliferation the most”, the “inhibition of cell migration” value (MCF7 (breast cancer)) was “inhibited migration” and the “inhibition of cell migration” value [3] was “inhibited migration”. The “inhibition of kinase activity of PKCs from the novel PKC subfamily” value [4] was “strongly inhibits”.

For “uPEP1-26[10C/A]: full-length PKCeta derived uORF peptide with alanine substitution at Cys-10; MASRGALRRXLSPGLPRLLHLSRGLA wherein X is A (MASRGALRRALSPGLPRLLHLSRGLA)”, the “reduction of cell viability” value (MDA-MB-231 [5]) was “efficiently reduced cell viability”, the “reduction of cell viability” value (MCF-7) was “efficiently reduced cell viability” and the “reduction of cell viability” value (HeLa) was “efficiently reduced cell viability”.

B1: SEQ ID NO: 33: shRNA sequence for targeting PKCη expression (nucleic acid)
chain: GATCCCCGGCCCGTCTTAACTCCGATTGATCTCGATCAATCGGAGTTAAGACGGGTTTTTG
B1 was tested, and the “formation of tumor metastases (lungs)” value (4T1 cells) was “inhibited the formation of tumor metastases” and the “tumor volume over time” value (4T1 cells; mammary fat pad) was “significant inhibition in tumor size”.
